According to ChEMBL document CHEMBL1201862, “PubChem BioAssay data set” (2004):
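48-hour exposure; five concentrations; linearly interpolated endpoints. Abbreviation: GI50, concentration required for 50% inhibition of growth.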 Calls of active or inactive are those of the source. Cut-off read from the data, not from the text of the source: active = GI50 up to about 1.1 µM and inactive = higher.

Assays:
Test in all cases: NCI tumour cell line growth inhibition, 48 h
UACC-257 = test system: UACC-257
TK-10 = test system: TK-10
786-0 = test system: 786-0
HCT-116 = test system: HCT-116
OVCAR-3 = test system: OVCAR-3
NCI/ADR-RES = test system: NCI/ADR-RES
HCT-15 = test system: HCT-15
HOP-92 = test system: HOP-92
CCRF-CEM = test system: CCRF-CEM
OVCAR-8 = test system: OVCAR-8
NCI-H23 = test system: NCI-H23
SK-MEL-5 = test system: SK-MEL-5
HOP-62 = test system: HOP-62
KM12 = test system: KM12
EKVX = test system: EKVX
IGROV-1 = test system: IGROV-1
MDA-N = test system: MDA-N
UACC-62 = test system: UACC-62
NCI-H522 = test system: NCI-H522
SF-295 = test system: SF-295
SNB-75 = test system: SNB-75
M14 = test system: M14
SNB-19 = test system: SNB-19
RXF 393 = test system: RXF 393
RPMI-8226 = test system: RPMI-8226
Malme-3M = test system: Malme-3M
HL-60 = test system: HL-60
SK-MEL-28 = test system: SK-MEL-28
UO-31 = test system: UO-31
Hs-578T = test system: Hs-578T
MCF7 = test system: MCF7
OVCAR-5 = test system: OVCAR-5
ACHN = test system: ACHN
SK-OV-3 = test system: SK-OV-3
COLO 205 = test system: COLO 205
SW-620 = test system: SW-620
MDA-MB-231 = test system: MDA-MB-231
LOX IMVI = test system: LOX IMVI
A498 = test system: A498
CAKI-1 = test system: CAKI-1
T47D = test system: T47D
HT-29 = test system: HT-29
K562 = test system: K562
NCI-H460 = test system: NCI-H460
DU-145 = test system: DU-145
OVCAR-4 = test system: OVCAR-4
MOLT-4 = test system: MOLT-4
BT-549 = test system: BT-549
SF-268 = test system: SF-268
SK-MEL-2 = test system: SK-MEL-2
MDA-MB-435 = test system: MDA-MB-435
SN12C = test system: SN12C
A549 = test system: A549
HCC 2998 = test system: HCC 2998
PC-3 = test system: PC-3
U-251 = test system: U-251
SF-539 = test system: SF-539
NCI-H226 = test system: NCI-H226
SR = test system: SR

Measured: GI50

COc1cc(/C=C2\N=C(c3ccccc3)N(c3nc4ccc(Sc5ccccc5)cc4[nH]3)C2=O)ccc1O
21.9 µM: HCT-15
inactive: UACC-257 18 µM | TK-10 20.7 µM | 786-0 21.7 µM | HCT-116 21.1 µM | OVCAR-3 30.5 µM | NCI/ADR-RES 18.7 µM | HOP-92 62.2 µM | CCRF-CEM 6.14 µM | OVCAR-8 27.6 µM | NCI-H23 26.8 µM | SK-MEL-5 14.7 µM | HOP-62 42.7 µM | KM12 15.2 µM | EKVX 31.5 µM | IGROV-1 37.8 µM | MDA-N 5.13 µM | UACC-62 15.2 µM | NCI-H522 18.8 µM | SF-295 27.9 µM | SNB-75 33.6 µM | M14 15.6 µM | SNB-19 31.8 µM | RXF 393 28.5 µM | RPMI-8226 16.7 µM | Malme-3M 18 µM | HL-60 11.2 µM | SK-MEL-28 21.2 µM | UO-31 28.7 µM | Hs-578T 32.4 µM | MCF7 17.5 µM | OVCAR-5 26.1 µM | ACHN 26.9 µM | SK-OV-3 30.4 µM | COLO 205 18 µM | SW-620 21.7 µM | MDA-MB-231 25.6 µM | LOX IMVI 25.5 µM | A498 21.3 µM | CAKI-1 23.9 µM | T47D 27 µM | HT-29 18.4 µM | K562 11.7 µM | NCI-H460 19.5 µM | DU-145 35.7 µM | OVCAR-4 30.1 µM | MOLT-4 26.1 µM | BT-549 20 µM | SF-268 25.5 µM | SK-MEL-2 13.5 µM | MDA-MB-435 3.56 µM | SN12C 26.9 µM | A549 30.5 µM | HCC 2998 15.8 µM | PC-3 24.4 µM | U-251 19.4 µM

O=C(Nc1ncc([N+](=O)[O-])s1)c1ccccc1O [TIZOXANIDE]
inactive: UACC-257 20.7 µM | TK-10 21.4 µM | 786-0 24.4 µM | HCT-116 11.1 µM | OVCAR-3 6.84 µM | NCI/ADR-RES 13.6 µM | HOP-92 2.74 µM | OVCAR-8 17.9 µM | NCI-H23 12.5 µM | SK-MEL-5 15.2 µM | HOP-62 20 µM | KM12 15.3 µM | SF-539 45 µM | EKVX 16.5 µM | IGROV-1 23.6 µM | MDA-N 27 µM | UACC-62 4.66 µM | NCI-H522 3.13 µM | SF-295 7.89 µM | SNB-75 18.1 µM | M14 20 µM | SNB-19 16.2 µM | RXF 393 3.39 µM | RPMI-8226 7 µM | Malme-3M 12.9 µM | SK-MEL-28 26.4 µM | UO-31 23.7 µM | Hs-578T 6.58 µM | MCF7 13.7 µM | OVCAR-5 32.9 µM | ACHN 18.7 µM | SK-OV-3 12.2 µM | COLO 205 15.2 µM | SW-620 34.1 µM | MDA-MB-231 23.5 µM | LOX IMVI 24.6 µM | A498 8.75 µM | CAKI-1 29.6 µM | T47D 28.3 µM | HT-29 14.5 µM | K562 28.2 µM | NCI-H460 18 µM | DU-145 21 µM | OVCAR-4 38.3 µM | MOLT-4 18.5 µM | BT-549 19.1 µM | SF-268 13.6 µM | SK-MEL-2 12.5 µM | MDA-MB-435 22.6 µM | SN12C 17.5 µM | A549 19.3 µM | HCC 2998 13.6 µM | PC-3 11.9 µM | NCI-H226 7.55 µM | U-251 14.9 µM
19.1 µM: HCT-15

COc1cc2[nH]c(=O)[nH]c2c2c(C)c[nH]c12
> 100 µM: HCT-15
inactive: UACC-257 > 100 µM | TK-10 > 100 µM | 786-0 > 100 µM | HCT-116 > 100 µM | OVCAR-3 > 100 µM | NCI/ADR-RES > 100 µM | CCRF-CEM > 100 µM | OVCAR-8 > 100 µM | NCI-H23 > 100 µM | SK-MEL-5 > 100 µM | HOP-62 > 100 µM | KM12 > 100 µM | EKVX > 100 µM | IGROV-1 > 100 µM | MDA-N > 100 µM | UACC-62 > 100 µM | NCI-H522 > 100 µM | SF-295 > 100 µM | SNB-75 > 100 µM | M14 > 100 µM | SNB-19 > 100 µM | RXF 393 > 100 µM | RPMI-8226 > 100 µM | Malme-3M > 100 µM | HL-60 > 100 µM | SK-MEL-28 > 100 µM | UO-31 > 100 µM | Hs-578T > 100 µM | MCF7 > 100 µM | OVCAR-5 > 100 µM | ACHN > 100 µM | SK-OV-3 > 100 µM | COLO 205 > 100 µM | SW-620 > 100 µM | MDA-MB-231 > 100 µM | LOX IMVI > 100 µM | A498 > 100 µM | CAKI-1 > 100 µM | T47D > 100 µM | HT-29 > 100 µM | K562 > 100 µM | NCI-H460 > 100 µM | DU-145 > 100 µM | OVCAR-4 > 100 µM | MOLT-4 > 100 µM | BT-549 > 100 µM | SF-268 > 100 µM | SK-MEL-2 > 100 µM | MDA-MB-435 > 100 µM | SN12C > 100 µM | A549 > 100 µM | SR > 100 µM | HCC 2998 > 100 µM | PC-3 > 100 µM | NCI-H226 > 100 µM | U-251 > 100 µM

O=C1c2ccccc2C(=O)c2c1ccc(C(=O)O)c2-c1ccc2ccccc2c1
19.6 µM: HCT-15
inactive: UACC-257 49.8 µM | TK-10 61.2 µM | 786-0 28.2 µM | HCT-116 20.7 µM | OVCAR-3 18.2 µM | NCI/ADR-RES 30.8 µM | CCRF-CEM 23.3 µM | OVCAR-8 33.5 µM | NCI-H23 18.6 µM | SK-MEL-5 16.9 µM | HOP-62 32.2 µM | KM12 27 µM | SF-539 25.8 µM | EKVX 20.6 µM | IGROV-1 13.7 µM | MDA-N 26.5 µM | UACC-62 18.2 µM | NCI-H522 23.7 µM | SF-295 28.5 µM | M14 20.5 µM | SNB-19 34.7 µM | RPMI-8226 27.7 µM | Malme-3M 24.1 µM | HL-60 27.9 µM | SK-MEL-28 40.2 µM | UO-31 21.2 µM | Hs-578T 23.9 µM | MCF7 3.42 µM | OVCAR-5 22.5 µM | ACHN 30.8 µM | SK-OV-3 31 µM | COLO 205 10.4 µM | SW-620 29.4 µM | MDA-MB-231 23.2 µM | LOX IMVI 18.9 µM | A498 29 µM | CAKI-1 29.3 µM | T47D 2.22 µM | HT-29 32.5 µM | K562 25.9 µM | NCI-H460 30.1 µM | DU-145 16.2 µM | OVCAR-4 30.8 µM | MOLT-4 19.1 µM | BT-549 26.4 µM | SF-268 28 µM | SK-MEL-2 19.1 µM | MDA-MB-435 23.8 µM | SN12C 29.1 µM | A549 30.5 µM | SR 16.6 µM | HCC 2998 25.9 µM | PC-3 24.5 µM | NCI-H226 21.8 µM | U-251 21.9 µM

COC(=O)/C=C(\S/C(=C(/c1ccc(OC)cc1)n1cc(C(=O)OC)c(C(=O)OC)n1)c1ccc(OC)cc1)C(=O)OC
active: CCRF-CEM 0.399 µM
inactive: UACC-257 8.49 µM | TK-10 4.33 µM | 786-0 5.36 µM | HCT-116 9.98 µM | OVCAR-3 3.42 µM | NCI/ADR-RES 28.7 µM | OVCAR-8 2.11 µM | NCI-H23 37.2 µM | SK-MEL-5 35.5 µM | HOP-62 44.9 µM | KM12 76.2 µM | SF-539 21.6 µM | EKVX 21.6 µM | IGROV-1 6.4 µM | MDA-N 19.6 µM | UACC-62 34.9 µM | SF-295 > 100 µM | SNB-75 55.1 µM | M14 21.6 µM | SNB-19 51.8 µM | RXF 393 12.6 µM | RPMI-8226 38.3 µM | Malme-3M 13.7 µM | HL-60 2.7 µM | SK-MEL-28 3.08 µM | UO-31 4.14 µM | Hs-578T 47.9 µM | MCF7 5.62 µM | OVCAR-5 27.1 µM | ACHN 5.13 µM | SK-OV-3 > 100 µM | COLO 205 3.01 µM | SW-620 7.06 µM | MDA-MB-231 > 100 µM | LOX IMVI 9.35 µM | A498 > 100 µM | CAKI-1 2.58 µM | T47D 3.02 µM | HT-29 8.04 µM | K562 6.5 µM | NCI-H460 35.9 µM | DU-145 15.6 µM | OVCAR-4 19.4 µM | MOLT-4 2.78 µM | BT-549 65.3 µM | SF-268 17.1 µM | SK-MEL-2 32.6 µM | MDA-MB-435 16.7 µM | SN12C 15.5 µM | A549 77.6 µM | SR 2.77 µM | PC-3 26.6 µM | NCI-H226 48.6 µM | U-251 33.6 µM
6.43 µM: HCT-15
